This is an account of results in patent publication US8231693B2, “5-substituted 2-(alkoxymethyl)furans” (Furanix Technologies B.V., priority 2007, dated 2012).

The nature of this data set: Fuel solubility: miscibility in blends with commercial diesel. Format: physicochemical. An excerpt: Fuel solubility is a primary concern for diesel fuel applications. Not all highly polar oxygenates have good solubility in the current commercial diesel fuels.
Where [1] appears, read: all blend ratios with commercial diesel.

In the case of `CCOCc1ccc(COC(C)(C)C)o1` [5-(tertbutoxymethyl)-2-(ethoxymethyl)furan], the “miscibility with commercial diesel” value under setting [1] is recorded as “miscible in all blend ratio's”.

Consider `CCOCc1ccc(COCC)o1` [2,5-di(ethoxymethyl)furan], for which, under setting [1], the “miscibility with commercial diesel” value is recorded as “miscible in all blend ratio's”.

Regarding `CCOCc1ccc(C=O)o1` [EMF, 5-(ethoxymethyl)furfural], the “miscibility with commercial diesel” value (5 vol % blend with commercial diesel) is recorded as “completely miscible”, the “miscibility with commercial diesel” value (25 vol % blend with diesel) was “phase separation occurs” and the “miscibility with commercial diesel” value (40 vol % blend with diesel) is on record as “phase separation occurs”.
